Test systems include OVCAR-8 ovarian; M14 melanoma; 786-0 renal; SW-620 colon; CAKI-1 renal; HCT-116 colon; EKVX NSCLC; TK-10 renal; HT29 colon; OVCAR-5 ovarian.
Common to all, as to test: NCI anticancer screen, dose series, 48 h

“And” between values parts separate entries of the source, which are not always exact repeats. Equal values may be shown once.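 The compound was tested at five concentrations on cells cultured in 96-well plates, with a 48-hour exposure period. GI50 is the concentration that inhibits growth by half. TGI denotes the concentration required for complete inhibition of growth.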

For the molecule `Cc1nnc(S(=O)(=O)c2ccc(N=Nc3c(N)nc(N)nc3N)cc2)s1`, the TGI with OVCAR-8 ovarian, in the test on M14 melanoma, in the test on 786-0 renal, in the test on SW-620 colon, in the test with CAKI-1 renal and in the test with HCT-116 colon was > 100 µM in each case. The TGI in the test on EKVX NSCLC, in the test with TK-10 renal, in the test with HT29 colon and in the test on OVCAR-5 ovarian was > 100 µM in each case.
As to `O=C1CN=C(C[N+](=O)[O-])c2ccccc21`, the TGI in the test with OVCAR-8 ovarian, in the test with M14 melanoma, in the test on 786-0 renal, in the test on SW-620 colon, in the test on CAKI-1 renal and in the test with HCT-116 colon was > 100 µM each time. Further, the TGI with EKVX NSCLC, in the test on HT29 colon and with OVCAR-5 ovarian was > 100 µM each time.
In the case of `Ic1ccc(Nc2nc3nonc3nc2Nc2ccc(I)cc2)cc1`, the GI50 is 351 nM in the test on OVCAR-8 ovarian; 332 nM in the test with 786-0 renal; 296 nM with SW-620 colon; 214 nM in the test with CAKI-1 renal; 0.135 µM in the test on HCT-116 colon; 245 nM in the test with EKVX NSCLC. In addition, the GI50 is 321 nM in the test with TK-10 renal, 265 nM in the test on HT29 colon and 387 nM in the test on OVCAR-5 ovarian. Besides, the TGI in the test with OVCAR-8 ovarian, in the test on 786-0 renal, in the test with SW-620 colon, in the test with HCT-116 colon, in the test on EKVX NSCLC and with TK-10 renal was > 100 µM throughout. In addition, the TGI in the test on HT29 colon and in the test with OVCAR-5 ovarian was > 100 µM throughout.
Turning to `CCCCOC(=O)C1C(c2ccc(Cl)cc2)NC(c2ccc(Cl)cc2)C(C(=O)OCCCC)S1(=O)=O` (centres undefined), the TGI in the test with OVCAR-8 ovarian, with M14 melanoma, with 786-0 renal, with SW-620 colon, in the test with CAKI-1 renal and with EKVX NSCLC was > 100 µM each time. Besides, the TGI in the test with TK-10 renal, in the test with HT29 colon and in the test with OVCAR-5 ovarian was > 100 µM throughout.
As for `O=[n+]1c2c(n([O-])c3ccccc31)CCCCCCCCCC2`, the TGI in the test on M14 melanoma, in the test on 786-0 renal, in the test on SW-620 colon, in the test on CAKI-1 renal, in the test with HCT-116 colon and in the test with EKVX NSCLC was > 100 µM in each case. For the same molecule, the TGI in the test on TK-10 renal and with HT29 colon was > 100 µM throughout.
Regarding `CNC(=S)NC1CCCCC1NC(=S)NC` (centres undefined), the TGI with OVCAR-8 ovarian, in the test with M14 melanoma, in the test on 786-0 renal, with SW-620 colon, in the test with CAKI-1 renal and with HCT-116 colon was > 100 µM in each case. In addition, the TGI with EKVX NSCLC, in the test with HT29 colon and in the test with OVCAR-5 ovarian was > 100 µM throughout.
In the case of `C=CC1CC12C(=O)C1OC2(C)C2C(=O)c3cc4ccccc4cc3C(=O)C12` (centres undefined), the GI50 in the test on OVCAR-8 ovarian was 24200 nM; in the test on M14 melanoma, 37.8 µM; with 786-0 renal it was 23400 nM; with CAKI-1 renal, 12000 nM; with HCT-116 colon it was 33.5 µM; in the test with EKVX NSCLC it was 16800 nM. Also, the GI50 in the test with TK-10 renal was 31800 nM; with HT29 colon, 27500 nM; with OVCAR-5 ovarian it was 61200 nM. For the same molecule, the TGI is 92.3 µM in the test on OVCAR-8 ovarian; > 100 µM with M14 melanoma; 83 µM in the test with 786-0 renal; 35.7 µM with CAKI-1 renal; > 100 µM in the test on HCT-116 colon; > 100 µM in the test on EKVX NSCLC. The TGI in the test with TK-10 renal is 97.1 µM; in the test with HT29 colon it was > 100 µM; in the test on OVCAR-5 ovarian, > 100 µM.
On to `O=C1OC(c2ccccc2)=N/C1=C/C=C/c1ccco1`, for which the TGI in the test with OVCAR-8 ovarian, in the test with M14 melanoma, in the test on 786-0 renal, with SW-620 colon, in the test with CAKI-1 renal and in the test on EKVX NSCLC was > 100 µM throughout. Besides, the TGI in the test on TK-10 renal, in the test on HT29 colon and with OVCAR-5 ovarian was > 100 µM throughout.
`CC1=CC(/C=C(\C)CCCc2ccoc2)C2(OC(=O)C(C)=C2O)[C@H]2C1CC[C@@H]2C` (some centres undefined): the TGI in the test with OVCAR-8 ovarian is > 100 µM; with M14 melanoma, 60.9 µM; in the test with 786-0 renal, 32.2 µM; in the test with SW-620 colon, > 100 µM; in the test with CAKI-1 renal, > 100 µM; in the test on HCT-116 colon, 38.1 µM. Besides, the TGI with EKVX NSCLC, in the test with TK-10 renal and in the test on HT29 colon was > 100 µM in each case.
For the molecule `O=S(O)CCCCSSCC(O)C(O)CSSCCCCS(=O)O` (centres undefined), the TGI with OVCAR-8 ovarian is 96.5 µM and > 100 µM; with M14 melanoma it was 24.2 µM and 30.6 µM; with 786-0 renal it was > 100 µM; in the test on SW-620 colon, 47.6 µM and 61.8 µM; in the test with CAKI-1 renal it was > 100 µM; in the test on EKVX NSCLC it was > 100 µM and 93.1 µM. The TGI in the test on TK-10 renal is > 100 µM; with HT29 colon, 24.4 µM and 27 µM; with OVCAR-5 ovarian it was > 100 µM.
Regarding `COc1ccc(NC(=O)CCc2cc(-c3ccc(O)c(OC)c3)nc(NC#N)n2)cc1`, the TGI in the test with OVCAR-8 ovarian, in the test with M14 melanoma, in the test with 786-0 renal, with SW-620 colon, with CAKI-1 renal and with HCT-116 colon was > 100 µM each time. In addition, the TGI in the test on EKVX NSCLC, in the test on HT29 colon and in the test with OVCAR-5 ovarian was > 100 µM each time.
Turning to `CC(C)(C)C(=O)OCOP(=O)(OCOC(=O)C(C)(C)C)C1CCCN(O)C1=O` (centres undefined), the GI50 in the test with OVCAR-8 ovarian was 305 nM; in the test on M14 melanoma, 0.693 µM; in the test on 786-0 renal, 350 nM; with SW-620 colon, 493 nM; with CAKI-1 renal, 324 nM; with EKVX NSCLC, 657 nM. The GI50 is 537 nM in the test with TK-10 renal, 335 nM in the test on HT29 colon and 2010 nM in the test on OVCAR-5 ovarian. Moreover, the TGI in the test on OVCAR-8 ovarian was 8.91 µM; in the test on M14 melanoma it was 14.1 µM; with 786-0 renal, 18.1 µM; with SW-620 colon, 42.6 µM; in the test with CAKI-1 renal, > 100 µM; in the test with EKVX NSCLC it was 12.5 µM. Further, the TGI with TK-10 renal was found to be 8.05 µM; in the test on HT29 colon, 8.53 µM; with OVCAR-5 ovarian, 62.7 µM.

For the origin of these results see PubChem BioAssay (NCI).
